For experiment [1], the target named is T1, Protein RecA (Mycobacterium tuberculosis, UniProt P9WHJ3).
T1 sequence (P9WHJ3 whole entry): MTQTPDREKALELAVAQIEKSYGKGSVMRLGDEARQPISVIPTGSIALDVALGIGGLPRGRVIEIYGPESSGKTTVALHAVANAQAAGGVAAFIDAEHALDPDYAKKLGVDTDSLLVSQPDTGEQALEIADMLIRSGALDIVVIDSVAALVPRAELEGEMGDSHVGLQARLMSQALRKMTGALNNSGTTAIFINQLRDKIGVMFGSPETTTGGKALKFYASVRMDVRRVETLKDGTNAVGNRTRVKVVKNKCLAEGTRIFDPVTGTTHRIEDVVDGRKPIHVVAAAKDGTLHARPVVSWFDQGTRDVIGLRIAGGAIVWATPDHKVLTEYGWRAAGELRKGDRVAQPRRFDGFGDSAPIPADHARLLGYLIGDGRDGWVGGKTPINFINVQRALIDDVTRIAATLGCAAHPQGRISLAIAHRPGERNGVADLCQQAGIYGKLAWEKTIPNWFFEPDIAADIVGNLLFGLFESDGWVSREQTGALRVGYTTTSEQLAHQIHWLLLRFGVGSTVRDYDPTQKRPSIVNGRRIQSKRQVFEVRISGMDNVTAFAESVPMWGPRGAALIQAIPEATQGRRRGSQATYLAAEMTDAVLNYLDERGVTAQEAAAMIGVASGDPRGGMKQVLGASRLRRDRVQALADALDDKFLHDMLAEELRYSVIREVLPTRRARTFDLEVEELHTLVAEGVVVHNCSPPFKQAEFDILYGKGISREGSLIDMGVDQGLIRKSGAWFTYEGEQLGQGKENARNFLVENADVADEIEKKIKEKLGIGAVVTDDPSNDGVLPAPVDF
The experiment in a line: Fluorescence Cell-Free Homogeneous Dose Retest to Identify Inhibitors of RecA-Intein Splicing Activity. [Related pubchem assays (depositor defined):AID2097, AID2223, AID489010, AID492950]. In kind it is functional.

Experiment [2] concerns the target T2, Replicative DNA helicase DnaB (Mycobacterium tuberculosis, UniProt P9WMR3).
T2 sequence (P9WMR3 whole entry): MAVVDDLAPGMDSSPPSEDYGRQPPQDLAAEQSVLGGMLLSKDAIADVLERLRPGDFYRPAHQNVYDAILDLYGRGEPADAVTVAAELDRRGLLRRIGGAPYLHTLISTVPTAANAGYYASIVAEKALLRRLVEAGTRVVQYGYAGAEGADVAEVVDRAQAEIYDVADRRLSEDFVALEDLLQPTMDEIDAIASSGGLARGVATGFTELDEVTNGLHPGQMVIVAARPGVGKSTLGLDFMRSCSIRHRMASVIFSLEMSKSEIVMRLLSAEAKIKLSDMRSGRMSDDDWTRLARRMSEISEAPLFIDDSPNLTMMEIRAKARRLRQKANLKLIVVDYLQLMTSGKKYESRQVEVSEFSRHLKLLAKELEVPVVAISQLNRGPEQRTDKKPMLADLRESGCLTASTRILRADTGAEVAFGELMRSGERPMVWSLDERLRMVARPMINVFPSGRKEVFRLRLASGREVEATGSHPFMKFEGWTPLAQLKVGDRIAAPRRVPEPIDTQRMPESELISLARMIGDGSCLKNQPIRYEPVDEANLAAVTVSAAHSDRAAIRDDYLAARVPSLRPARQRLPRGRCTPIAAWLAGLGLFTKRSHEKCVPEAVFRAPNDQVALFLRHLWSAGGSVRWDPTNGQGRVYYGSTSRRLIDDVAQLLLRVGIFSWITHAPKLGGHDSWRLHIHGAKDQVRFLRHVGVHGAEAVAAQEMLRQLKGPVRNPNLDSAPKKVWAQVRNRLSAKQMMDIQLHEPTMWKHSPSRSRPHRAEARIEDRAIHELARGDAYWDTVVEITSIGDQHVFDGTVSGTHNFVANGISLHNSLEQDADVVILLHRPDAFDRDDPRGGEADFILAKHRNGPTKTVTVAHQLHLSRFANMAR
The experiment in a line: DnaB intein splicing inhibitors, dose response, biochemical, cell-free fluorescence (AID 449749). The experiment is classed as functional.

Experiment [3] has as its target T3, Heat shock factor protein 1 (Mus musculus, UniProt P38532).
T3 sequence (P38532 whole entry): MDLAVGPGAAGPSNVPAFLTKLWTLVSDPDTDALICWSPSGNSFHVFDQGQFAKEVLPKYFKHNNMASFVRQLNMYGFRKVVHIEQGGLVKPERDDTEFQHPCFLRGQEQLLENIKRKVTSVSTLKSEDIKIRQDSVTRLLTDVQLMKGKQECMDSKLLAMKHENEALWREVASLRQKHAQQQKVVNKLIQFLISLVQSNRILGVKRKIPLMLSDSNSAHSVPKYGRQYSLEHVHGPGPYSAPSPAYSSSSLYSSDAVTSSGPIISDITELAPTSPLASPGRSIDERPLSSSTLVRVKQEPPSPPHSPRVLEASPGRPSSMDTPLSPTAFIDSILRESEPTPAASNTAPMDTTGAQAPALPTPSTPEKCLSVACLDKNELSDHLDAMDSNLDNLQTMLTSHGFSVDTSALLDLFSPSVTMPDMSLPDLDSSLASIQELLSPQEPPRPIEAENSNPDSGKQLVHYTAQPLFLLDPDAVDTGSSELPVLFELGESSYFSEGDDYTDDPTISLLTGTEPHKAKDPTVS
The experiment is described as follows: decrease of HSF1-responsive luciferase luminescence – cell-based, NIH3T3, dose retest, confirmation (AID 2382).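 Further: NIH3T3 fibroblasts with HSF1-driven luciferase reporter stressed by proteasome inhibitor MG132; luminescence from HSF1-driven luciferase expression after 8 hours of MG132 stress.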 In kind it is functional.

In experiment [4] the target is T4, Corticotropin-releasing factor receptor 2/Corticotropin-releasing factor-binding protein (Homo sapiens, UniProt P24387+Q13324).
T4 sequence (Q13324 whole entry): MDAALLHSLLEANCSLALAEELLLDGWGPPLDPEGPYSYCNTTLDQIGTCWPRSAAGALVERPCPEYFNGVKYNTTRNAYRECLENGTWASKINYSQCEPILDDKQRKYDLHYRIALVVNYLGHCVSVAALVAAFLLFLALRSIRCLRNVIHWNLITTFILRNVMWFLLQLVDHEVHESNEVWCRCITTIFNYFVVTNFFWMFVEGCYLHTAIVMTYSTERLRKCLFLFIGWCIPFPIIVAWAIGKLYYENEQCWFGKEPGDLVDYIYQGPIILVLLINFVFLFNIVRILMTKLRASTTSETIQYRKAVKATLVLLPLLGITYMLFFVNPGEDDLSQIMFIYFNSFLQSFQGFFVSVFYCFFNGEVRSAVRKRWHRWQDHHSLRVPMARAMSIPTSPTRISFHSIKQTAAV
T4 sequence (P24387 whole entry): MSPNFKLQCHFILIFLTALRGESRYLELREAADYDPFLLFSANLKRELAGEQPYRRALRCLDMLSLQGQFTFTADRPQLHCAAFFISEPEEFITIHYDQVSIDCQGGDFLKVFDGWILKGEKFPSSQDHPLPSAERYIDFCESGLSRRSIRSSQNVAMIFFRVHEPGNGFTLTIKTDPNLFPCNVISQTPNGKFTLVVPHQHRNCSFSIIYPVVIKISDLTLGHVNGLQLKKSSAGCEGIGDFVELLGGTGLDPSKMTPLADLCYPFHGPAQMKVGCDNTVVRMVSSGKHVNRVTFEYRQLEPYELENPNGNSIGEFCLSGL
The experiment in a line: activators of CRF receptor 2 with binding protein – uHTS hits, confirmation (AID 602473). In kind it is functional. The following applies: read-out: EC50_Mean.

For experiment [5], the target named is T5, Cytochrome P450 1A2 (Homo sapiens, UniProt P05177).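 Further: PubChem cytochrome P450 panel assay, CYP1A2 panel member.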
T5 sequence (P05177 whole entry): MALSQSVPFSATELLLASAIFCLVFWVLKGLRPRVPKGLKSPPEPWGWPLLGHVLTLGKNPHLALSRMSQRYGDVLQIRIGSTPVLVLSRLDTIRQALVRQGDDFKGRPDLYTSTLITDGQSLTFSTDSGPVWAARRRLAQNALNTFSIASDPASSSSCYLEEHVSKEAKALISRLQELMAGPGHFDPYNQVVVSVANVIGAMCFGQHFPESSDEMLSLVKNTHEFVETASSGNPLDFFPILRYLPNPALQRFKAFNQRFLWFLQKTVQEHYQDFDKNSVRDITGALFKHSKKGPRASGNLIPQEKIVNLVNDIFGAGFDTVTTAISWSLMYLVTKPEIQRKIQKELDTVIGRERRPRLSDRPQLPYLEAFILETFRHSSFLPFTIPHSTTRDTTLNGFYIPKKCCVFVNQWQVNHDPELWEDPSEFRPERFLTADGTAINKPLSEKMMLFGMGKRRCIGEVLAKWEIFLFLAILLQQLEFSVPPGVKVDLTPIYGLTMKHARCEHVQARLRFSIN

Experiment [6] has as its target Cytochrome P450 2C19 (Homo sapiens, UniProt P33261). The experiment in a line: Cytochrome panel assay with activity outcomes. Panel member name: p450-cyp2c19 Compounds with AC50 equal or less than 10 uM are considered active. In kind it is functional. The note with it: read-out: AC50.
Experiment [7] deals with INS1. The experiment in a line: INS-1E survival protection against cytokine death – cell-based, luminescence, retest, dose response (AID 449756).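 Further: cell death triggered by IL-1 beta plus TNF-alpha plus IFN-gamma mixture; protective hits raise ATP signal compared with cytokine alone wells.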 In kind it is functional. The following applies: Rattus norvegicus.
Experiment [8] in a line: Luminescence Cell-Based Dose Retest to Confirm Inhibitors of Cancer Stem Cells. [Related pubchem assays (depositor defined):AID2717, AID2721]. The experiment is classed as functional. The following applies: Homo sapiens.

Structures are written as SMILES. The source made the active and inactive calls. A value given as a limit tells only on which side of the number the result lay.

A word on the AC50: it is the midpoint of the concentration-response curve, whichever way the signal moves.

Sequence of Cytochrome P450 2C19 (P33261 whole entry): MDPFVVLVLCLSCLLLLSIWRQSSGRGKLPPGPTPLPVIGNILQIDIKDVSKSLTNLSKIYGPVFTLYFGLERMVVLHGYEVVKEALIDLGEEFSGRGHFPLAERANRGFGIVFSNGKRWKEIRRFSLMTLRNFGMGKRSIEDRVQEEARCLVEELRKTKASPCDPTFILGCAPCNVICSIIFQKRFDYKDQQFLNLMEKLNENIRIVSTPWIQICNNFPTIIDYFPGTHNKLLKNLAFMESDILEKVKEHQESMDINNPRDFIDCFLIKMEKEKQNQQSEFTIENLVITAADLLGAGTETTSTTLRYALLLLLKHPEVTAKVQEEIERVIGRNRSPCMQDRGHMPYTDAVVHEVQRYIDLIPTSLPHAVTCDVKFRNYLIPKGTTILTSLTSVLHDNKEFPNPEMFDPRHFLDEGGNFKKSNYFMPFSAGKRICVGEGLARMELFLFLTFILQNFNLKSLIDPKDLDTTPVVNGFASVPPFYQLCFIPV

Regarding `CC(C)c1n[nH]c2c1C(c1ccc(OC(=O)c3ccco3)cc1)C(C#N)=C(N)O2` (stereo not drawn), the EC50 in experiment [1] was 3.02 µM (active). In experiment [2], the AC50 was 6.85 µM (active). As for `Cc1cc(C)nc(-n2c(C)nc3cc(Cl)ccc3c2=O)c1`, in experiment [3], the EC50 was 35.9 µM (active). Regarding `Cc1c(C)n(O)c2ccc3nonc3c12`, the EC50 in experiment [1] is 3.67 µM (active). For the same compound, the AC50 in experiment [2] is > 380 µM (inactive). With `O=C(Nc1cccc2ncccc12)C(Cl)(Cl)Cl`, the EC50 in experiment [3] is reported as > 195 µM (not active). Turning to `CC1=NNC(=O)C1Cc1ccccc1C` (stereo not drawn), the EC50 in experiment [1] was 0.329 µM (active). Further, in experiment [2], the AC50 was 0.538 µM (active).

As for `O=C(NCCCN1CCCC1=O)c1cccc(N2CCCC2=O)c1`, the EC50 in experiment [3] was > 195 µM (not active). On the same count and under the same terms, the value for `CCSc1nnc(-c2ccc(S(=O)(=O)NCc3cccs3)cc2)o1` was > 195 µM (not active). For `Cc1ccccc1NS(=O)(=O)c1cc2c(cc1C)NC(=O)CO2`, in experiment [4], the EC50 is > 53 µM (inactive). Regarding `Cc1cc(NC(=O)COc2coc(CN3CCN(c4ccccc4F)CC3)cc2=O)no1`, the EC50 in experiment [3] was > 195 µM (not active). Turning to `C=C(C)C(=O)NC1=NN(c2ccccc2)C(=O)C1`, the EC50 in experiment [1] is 37 µM (active). Also, in experiment [2], the AC50 is 3.66 µM (active).

Take `c1ccc(CCNCc2cccs2)cc1`: the EC50 in experiment [1] was > 380 µM (inactive). In addition, the AC50 in experiment [2] was > 380 µM (inactive). As for `Clc1ccc(C2=C3CCCCn4c(-c5ccccc5)c[n+](c43)C2)cc1`, the AC50 was 12.6 µM (inconclusive) in experiment [5], 1.12 µM (inconclusive) in experiment [6] and > 380 µM (inactive) in experiment [2]. Besides, the EC50 in experiment [1] is 50 µM (active). Take `N#CCc1nn(-c2ccccc2)c2ncnc(N)c12`: in experiment [3], the EC50 was 30.8 µM (active). As to `O=S1(=O)N[C@H](c2ccccc2)C[C@H](c2ccc(C(F)(F)F)cc2)O1`, the EC50 in experiment [3] is reported as > 195 µM (not active). With `COc1ccc(/C=C/C(=O)c2ccncc2)c2ccccc12`, the AC50 in experiment [7] was 26.7 µM (active); in experiment [8] it was 11.8 µM (active); in experiment [2] it was > 120 µM (inactive). In addition, in experiment [1], the EC50 is 8.84 µM (active). In the case of `CC1Cc2cc(C(=O)C3=C(O)C(=O)N(CC4CCCO4)C3c3ccco3)ccc2O1` (stereo not drawn), in experiment [3], the EC50 is 69.9 µM (active). On the same count and under the same terms, as for `CCC1Sc2ccc(S(=O)(=O)Nc3ccc(OC)cc3)cc2NC1=O` (stereo not drawn), the figure is > 195 µM (not active). Still for that read-out and setting: as for `O=C(Nc1cccnc1)c1coc(=O)c2ccccc12`, the figure is > 195 µM (not active); as for `CCOC(=O)c1ccc(NC(=O)N2CCN(S(C)(=O)=O)CC2)cc1`, > 195 µM (not active). With `Cc1ccc(C(c2c(C)n[nH]c2O)c2c(C)n[nH]c2O)cc1`, the EC50 in experiment [1] was 0.248 µM (active). Moreover, the AC50 in experiment [2] was 0.36 µM (active).

As for `COc1ccc(Cl)cc1C(=O)NCC(=O)OCc1ccccc1`, the EC50 in experiment [3] is given as > 195 µM (not active). The same measure, in the same setting: as for `CN(C)c1ccc(/C=N\Nc2nc(O)cc(-c3ccccc3)n2)cc1`, the figure is > 195 µM (not active).

For `Cc1ccc(/N=C2\C(Cl)=C(O)OC2OC(=O)c2ccco2)cc1C` (stereo not drawn), the EC50 in experiment [1] was 8.65 µM (active). Moreover, in experiment [2], the AC50 was 11.5 µM (active). On the same counts, the results for `Cc1ccc(Sc2oc(/C=N/n3cnnc3)cc2Br)cc1` are 9.82 µM (active) and 4.42 µM (active).

The record behind these values is ChEMBL document CHEMBL1201862, “PubChem BioAssay data set” (2004).
